PubChem BioAssay (NCI)
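At the GI50, growth is halved. The concentration for full growth arrest is given as TGI.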

Legend:
Assay in all cases: DTP human tumour cell line panel, 384-well format
KM12 colon = test system: KM12 colon
SK-MEL-5 melanoma = test system: SK-MEL-5 melanoma
SNB-19 CNS = test system: SNB-19 CNS
NCI-H226 lung = test system: NCI-H226 lung
MDA-MB-231 breast = test system: MDA-MB-231 breast
SK-MEL-28 melanoma = test system: SK-MEL-28 melanoma
U251 glioblastoma = test system: U251 glioblastoma
OVCAR-4 ovarian = test system: OVCAR-4 ovarian
SF-295 CNS = test system: SF-295 CNS
A549 NSCLC = test system: A549 NSCLC
NCI-H322M lung = test system: NCI-H322M lung
DU-145 prostate = test system: DU-145 prostate
T-47D breast = test system: T-47D breast
M14 melanoma = test system: M14 melanoma
UACC-62 melanoma = test system: UACC-62 melanoma
IGROV1 ovarian = test system: IGROV1 ovarian
PC-3 prostate = test system: PC-3 prostate
786-0 renal = test system: 786-0 renal
HCT-15 colon = test system: HCT-15 colon
HCT-116 colon = test system: HCT-116 colon
TK-10 renal = test system: TK-10 renal
HS 578T breast = test system: HS 578T breast
MDA-MB-468 breast = test system: MDA-MB-468 breast
MDA-MB-435 melanoma = test system: MDA-MB-435 melanoma
HL-60(TB) leukemia = test system: HL-60(TB) leukemia
COLO 205 colon = test system: COLO 205 colon
NCI/ADR-RES ovarian = test system: NCI/ADR-RES ovarian
HOP-62 NSCLC = test system: HOP-62 NSCLC
SF-539 CNS = test system: SF-539 CNS

Structure (SMILES): Cc1ccc(NC(=O)c2ccnc(C(F)(F)F)c2)cc1-c1cc(OCCO)nc(N2CCOCC2)c1
- GI50 (KM12 colon): 523 nM
- TGI (KM12 colon): 5770 nM
- GI50 (SK-MEL-5 melanoma): 155 nM
- TGI (SK-MEL-5 melanoma): 437 nM
- GI50 (SNB-19 CNS): 2380 nM
- TGI (SNB-19 CNS): 18000 nM
- GI50 (NCI-H226 lung): 577 nM
- TGI (NCI-H226 lung): 6560 nM
- GI50 (MDA-MB-231 breast): 37.3 nM
- TGI (MDA-MB-231 breast): 12100 nM
- GI50 (SK-MEL-28 melanoma): 253 nM
- TGI (SK-MEL-28 melanoma): 758 nM
- GI50 (U251 glioblastoma): 595 nM
- TGI (U251 glioblastoma): 5430 nM
- GI50 (OVCAR-4 ovarian): 3870 nM
- TGI (OVCAR-4 ovarian): 20000 nM
- GI50 (SF-295 CNS): 569 nM
- TGI (SF-295 CNS): 13900 nM
- GI50 (A549 NSCLC): 591 nM
- TGI (A549 NSCLC): 14500 nM
- GI50 (NCI-H322M lung): 2010 nM
- TGI (NCI-H322M lung): 16200 nM
- GI50 (DU-145 prostate): 2420 nM
- TGI (DU-145 prostate): > 100000 nM
- GI50 (T-47D breast): 754 nM
- TGI (T-47D breast): 5920 nM
- GI50 (M14 melanoma): 129 nM
- TGI (M14 melanoma): 603 nM
- GI50 (UACC-62 melanoma): 152 nM
- TGI (UACC-62 melanoma): 526 nM
- GI50 (IGROV1 ovarian): 697 nM
- TGI (IGROV1 ovarian): 11400 nM
- GI50 (PC-3 prostate): 750 nM
- TGI (PC-3 prostate): 14200 nM
- GI50 (786-0 renal): 997 nM
- TGI (786-0 renal): 11700 nM
- GI50 (HCT-15 colon): 339 nM
- TGI (HCT-15 colon): 9050 nM
- GI50 (HCT-116 colon): 243 nM
- TGI (HCT-116 colon): 2480 nM
- GI50 (TK-10 renal): 1030 nM
- TGI (TK-10 renal): 87600 nM
- GI50 (HS 578T breast): 1190 nM
- TGI (HS 578T breast): 3650 nM
- GI50 (MDA-MB-468 breast): 359 nM
- TGI (MDA-MB-468 breast): 1270 nM
- GI50 (MDA-MB-435 melanoma): 289 nM
- TGI (MDA-MB-435 melanoma): 922 nM
- GI50 (HL-60(TB) leukemia): 68 nM
- TGI (HL-60(TB) leukemia): 1090 nM
- GI50 (COLO 205 colon): 214 nM
- TGI (COLO 205 colon): 1120 nM
- GI50 (NCI/ADR-RES ovarian): 2190 nM
- TGI (NCI/ADR-RES ovarian): 5240 nM
- GI50 (HOP-62 NSCLC): 1230 nM
- TGI (HOP-62 NSCLC): 11500 nM
- GI50 (SF-539 CNS): 927 nM
- TGI (SF-539 CNS): 3750 nM
